Three molecules from patent US4335249A, “Herbicidal diphenyl ethers, sulfides, sulfoxides and sulfones” (Rohm and Haas Company, priority 1976, dated 1982) can be followed below.

Type in all cases: in vivo
In test [1] the test system is cocklebur (Xanthium pensylvanicum). In words: Preemergence herbicidal activity, cocklebur. To be noted: Xanthium strumarium, pre-emergence, 336 h, 2 lb/A. The procedure, abridged: (§1)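 Plants were scored as mean % killed about two weeks after treatment. Postemergence species were sprayed two weeks after germination and preemergence species immediately after sowing. The spray was an acetone/water solution at the stated lb/A rate in a 50 gal/acre carrier.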

Test [2] has as its system marigold (Tagetes spp.). The test can be described thus: Preemergence herbicidal activity, marigold. To be noted: pre-emergence, 336 h, 2 lb/A. The gist of the method:
as §1

The subject of test [3] is morningglory (Ipomoca spp.). The test can be described thus: Preemergence herbicidal activity, morningglory. To be noted: Ipomoea, pre-emergence, 336 h, 2 lb/A. The procedure, abridged:
as §1

Test [4] deals with tomato (Lycopersicon esculentum). The test can be described thus: Preemergence herbicidal activity, tomato. To be noted: Solanum lycopersicum, pre-emergence, 336 h; Pre, 2 lb/A. The procedure, abridged:
as §1

For test [5], the system named is velvetleaf (Abutilon theophrasti). In words: Preemergence herbicidal activity, velvetleaf. To be noted: Abutilon theophrasti, pre-emergence, 336 h; Pre, 2 lb/A. The procedure, abridged:
as §1

Test [6] has as its system barnyardgrass (Echinochloa crusgalli). The test can be described thus: Preemergence herbicidal activity, barnyardgrass. To be noted: Echinochloa crus-galli, pre-emergence, 336 h; Pre, 2 lb/A. The gist of the method:
(§2)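 Flats of soil-planted weed seeds were treated either right after sowing (preemergence) or two weeks after germination (postemergence). Application was a spray of acetone solution diluted in water, 50 gallons per acre carrier, dosed in lb/A.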

Test [7] concerns downybrome (Bromus tectorum). In words: Preemergence herbicidal activity, downybrome. To be noted: Bromus tectorum, pre-emergence, 336 h, Pre, 2 lb/A. The gist of the method: as §1
The subject of test [8] is foxtail (Setaria spp.). In words: Preemergence herbicidal activity, foxtail. The conditions noted are these: Setaria, pre-emergence, 336 h; Pre, 2 lb/A. The gist of the method:
as §1

The test system of test [9] is yellow nutsedge (Cyperus esculentus). The test can be described thus: Preemergence herbicidal activity, yellow nutsedge. To be noted: Cyperus, pre-emergence, 336 h, 2 lb/A. The procedure, abridged: as §1
Test [10] concerns wild oats (Avena fatua). In words: Preemergence herbicidal activity, wild oats. The conditions noted are these: Avena fatua, pre-emergence, 336 h, Pre, 2 lb/A; read-out: % control, Wild oat. The procedure, abridged:
as §1

The subject of test [11] is cocklebur (Xanthium pensylvanicum). In words: Postemergence herbicidal activity, cocklebur. To be noted: Xanthium strumarium, post-emergence, 336 h, 2 lb/A. The gist of the method:
as §1

Test [12] relates to marigold (Tagetes spp.). The test can be described thus: Postemergence herbicidal activity, marigold. The conditions noted are these: post-emergence, 336 h, 2 lb/A. The gist of the method:
as §1

Test [13] deals with morningglory (Ipomoca spp.). In words: Postemergence herbicidal activity, morningglory. The conditions noted are these: Ipomoea, post-emergence, 336 h, 2 lb/A. The procedure, abridged:
as §1

The test system of test [14] is tomato (Lycopersicon esculentum). The test can be described thus: Postemergence herbicidal activity, tomato. To be noted: Solanum lycopersicum, post-emergence, 336 h, Post, 2 lb/A. The gist of the method: as §1
Test [15] relates to velvetleaf (Abutilon theophrasti). In words: Postemergence herbicidal activity, velvetleaf. To be noted: Abutilon theophrasti, post-emergence, 336 h, 2 lb/A. The gist of the method: as §2
Test [16] has as its system barnyardgrass (Echinochloa crusgalli). The test can be described thus: Postemergence herbicidal activity, barnyardgrass. To be noted: Echinochloa crus-galli, post-emergence, 336 h; Post, 2 lb/A. The procedure, abridged:
as §2

Test [17] relates to downybrome (Bromus tectorum). In words: Postemergence herbicidal activity, downybrome. To be noted: Bromus tectorum, post-emergence, 336 h, Post, 2 lb/A. The gist of the method:
as §1

The subject of test [18] is foxtail (Setaria spp.). In words: Postemergence herbicidal activity, foxtail. The conditions noted are these: Setaria, post-emergence, 336 h, Post, 2 lb/A. The gist of the method:
as §1

For test [19], the system named is yellow nutsedge (Cyperus esculentus). The test can be described thus: Postemergence herbicidal activity, yellow nutsedge. The conditions noted are these: Cyperus, post-emergence, 336 h, 2 lb/A. The procedure, abridged:
as §1

Test [20] has as its system wild oats (Avena fatua). In words: Postemergence herbicidal activity, wild oats. The conditions noted are these: Avena fatua, post-emergence, 336 h, Post, 2 lb/A; read-out: % control, Wild oat. The procedure, abridged:
as §1

`CCOC(=O)C(CC)Oc1ccc(Oc2ccc(C(F)(F)F)cc2Cl)cc1` (stereo not drawn) [Example 20]: the pest or weed control at 2241.7 g/ha worked out at 0% in [1]; 0% in [2]; 0% in test [3]; 0% in test [4]; 0% in test [5]; 99% in test [6]. In addition, the pest or weed control at 2241.7 g/ha was 90% in [7]; 100% in test [8]; 0% in test [9]; 40% in test [10]; 0% in [11]; 0% in test [12]. For the same molecule, the pest or weed control at 2241.7 g/ha in test [13] came to 0%; in test [14] it was 30%; in test [15] it was 50%; in [16], 100%; in test [17], 30%; in test [18], 100%. For the same molecule, the pest or weed control at 2241.7 g/ha in [19] came out at 20%; in [20] it was 100%.
Regarding `CCNC(=O)C(C)Oc1ccc(Oc2ccc(C(F)(F)F)cc2Cl)cc1` (stereo not drawn) [Example 21], the pest or weed control at 2241.7 g/ha amounted to 0% in test [1]; 0% in test [2]; 0% in test [3]; 0% in test [4]; 0% in [5]; 100% in test [6]. Also, the pest or weed control at 2241.7 g/ha stood at 90% in test [7]; 100% in [8]; 0% in test [9]; 40% in [10]; 0% in test [11]; 0% in [12]. In addition, the pest or weed control at 2241.7 g/ha in test [13] was found to be 0%; in test [14] it was 0%; in [15], 0%; in test [16], 100%; in [17], 30%; in test [18] it was 100%. Besides, the values for the pest or weed control at 2241.7 g/ha in [19] and in [20] were 0% and 99%, respectively.
As to `CC(C)OC(=O)C(C)Oc1ccc(Oc2ccc(C(F)(F)F)cc2Cl)cc1` (stereo not drawn) [Example 22], the pest or weed control at 2241.7 g/ha in [1] was 0%; in test [2] it was 0%; in [3], 0%; in test [4], 0%; in [5] it was 0%; in test [6] it was 100%. Also, the pest or weed control at 2241.7 g/ha came to 95% in test [7]; 100% in test [8]; 0% in test [9]; 60% in test [10]; 30% in test [11]; 30% in [12]. Moreover, the pest or weed control at 2241.7 g/ha in test [13] was determined as 20%; in test [14], 99%; in [15], 40%; in test [16], 100%; in [17], 99%; in [18] it was 100%. For the same molecule, the pest or weed control at 2241.7 g/ha amounted to 0% in test [19] and 100% in test [20].
